According to patent US10287305B2, “Substituted piperidine compound and use thereof” (Takeda Pharmaceutical Company Limited, priority 2016, dated 2019):

Molecular target: human orexin type 2 receptor (hOX2R) (Homo sapiens (Human), UniProt O43614)
Test: Measurement of orexin type 2 receptor agonist activity (Experimental Example 2-1, FLIPR TETRA, intracellular Ca2+)
Assay type: cell-based
Details: CHO dhfr- cells expressing hOX2R, FLIPR TETRA, Fluo-4AM; for Emax: read-out: Emax (%)

human orexin type 2 receptor (hOX2R), sequence (O43614 whole entry): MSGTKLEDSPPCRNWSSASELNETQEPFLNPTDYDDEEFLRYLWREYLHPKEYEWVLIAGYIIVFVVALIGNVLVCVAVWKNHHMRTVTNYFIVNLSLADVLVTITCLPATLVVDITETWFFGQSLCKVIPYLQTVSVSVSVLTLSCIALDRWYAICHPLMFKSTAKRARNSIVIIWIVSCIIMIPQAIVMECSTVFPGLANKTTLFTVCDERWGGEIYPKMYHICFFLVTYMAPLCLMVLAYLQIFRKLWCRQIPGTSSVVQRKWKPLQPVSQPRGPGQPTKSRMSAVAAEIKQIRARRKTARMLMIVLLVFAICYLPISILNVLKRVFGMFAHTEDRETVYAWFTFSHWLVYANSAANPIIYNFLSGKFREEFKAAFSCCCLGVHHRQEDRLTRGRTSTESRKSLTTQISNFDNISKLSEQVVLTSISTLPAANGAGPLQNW

Row | SMILES | EC50 | Emax | Emax (%)
1 | COc1cccc([C@H]2CC[C@@H](OC[C@@H]3NCCC[C@@H]3NS(C)(=O)=O)CC2)c1 (relative stereo) [Example 269, N-(cis-2-(((cis-4-(3-methoxyphenyl)cyclohexyl)oxy)methyl)piperidin-3-yl)methanesulfonamide] | 3000 nM | 95% | 
2 | COC(=O)N1CCC[C@H](NS(C)(=O)=O)[C@@H]1CO[C@H]1CC[C@@H](c2cccc(OC)c2)CC1 (relative stereo) [Example 270, methyl cis-2-(((cis-4-(3-methoxyphenyl)cyclohexyl)oxy)methyl)-3-((methylsulfonyl)amino)piperidine-1-carboxylate] | 80 nM | 102% | 
3 | COc1cccc([C@H]2CC[C@@H](OC[C@H]3[C@@H](NS(C)(=O)=O)CCCN3C(C)=O)CC2)c1 (relative stereo) [Example 271, N-(cis-1-acetyl-2-(((cis-4-(3-methoxyphenyl)cyclohexyl)oxy)methyl)piperidin-3-yl)methanesulfonamide] | 650 nM | 104% | 
4 | CCS(=O)(=O)N[C@H]1CCCN(C(=O)C2CC2)[C@H]1CO[C@H]1CC[C@@H](c2ccccc2)CC1 (relative stereo) [Example 279, N-(cis-1-(cyclopropylcarbonyl)-2-(((cis-4-phenylcyclohexyl)oxy)methyl)piperidin-3-yl)ethanesulfonamide] | 5.2 nM | 97% | 
5 | CCNC(=O)N1CCC[C@H](NS(C)(=O)=O)[C@@H]1CO[C@H]1C[C@H](Oc2ccccc2)C1 (relative stereo) [Example 281, cis-N-ethyl-3-((methylsulfonyl)amino)-2-(((trans-3-phenoxycyclobutyl)oxy)methyl)piperidine-1-carboxamide] | 3300 nM | 81% | 
6 | CC1(OC(=O)N2CCC[C@H](NS(C)(=O)=O)[C@@H]2COC2CCN(c3ncccn3)CC2)CC1 (relative stereo) [Example 284, 1-methylcyclopropyl cis-3-((methylsulfonyl)amino)-2-(((1-(pyrimidin-2-yl)piperidin-4-yl)oxy)methyl)piperidine-1-carboxylate] | 260 nM | 95% | 
7 | CS(=O)(=O)N[C@H]1CCCN(C(=O)OCC(F)(F)F)[C@H]1COC1CCN(c2ncccn2)CC1 (relative stereo) [Example 286, 2,2,2-trifluoroethyl cis-3-((methylsulfonyl)amino)-2-(((1-(pyrimidin-2-yl)piperidin-4-yl)oxy)methyl)piperidine-1-carboxylate] | 130 nM | 93% | 
8 | CS(=O)(=O)N[C@H]1CCCN(C(=O)OC2CC2)[C@H]1COC1CCN(c2ncccn2)CC1 (relative stereo) [Example 287, cyclopropyl cis-3-((methylsulfonyl)amino)-2-(((1-(pyrimidin-2-yl)piperidin-4-yl)oxy)methyl)piperidine-1-carboxylate] | 150 nM | 99% | 
9 | CS(=O)(=O)N[C@H]1CCCN(C(=O)OC2CC2)[C@H]1COC1CCN(c2ccccc2F)CC1 (relative stereo) [Example 290, cyclopropyl cis-2-(((1-(2-fluorophenyl)piperidin-4-yl)oxy)methyl)-3-((methylsulfonyl)amino)piperidine-1-carboxylate] | 3300 nM | 79% | 
10 | CC(=O)N1CCC[C@H](NS(C)(=O)=O)[C@@H]1CO[C@H]1CC[C@@H](c2ccccc2OC(F)(F)F)CC1 (relative stereo) [Example 293, N-(cis-1-acetyl-2-(((cis-4-(2-(trifluoromethoxy)phenyl)cyclohexyl)oxy)methyl)piperidin-3-yl)methanesulfonamide] | 540 nM | 78% | 
11 | CS(=O)(=O)N[C@H]1CCCN(C(=O)C2CC2)[C@H]1CO[C@H]1CC[C@@H](c2ccccc2OC(F)(F)F)CC1 (relative stereo) [Example 294, N-(cis-1-(cyclopropylcarbonyl)-2-(((cis-4-(2-(trifluoromethoxy)phenyl)cyclohexyl)oxy)methyl)piperidin-3-yl)methanesulfonamide] | 130 nM | 95% | 
12 | CCNC(=O)N1CCC[C@H](NS(C)(=O)=O)[C@@H]1CO[C@H]1CC[C@@H](c2ccccc2OC(F)(F)F)CC1 (relative stereo) [Example 295, cis-N-ethyl-3-((methylsulfonyl)amino)-2-(((cis-4-(2-(trifluoromethoxy)phenyl)cyclohexyl)oxy)methyl)piperidine-1-carboxamide] | 4.2 nM | 93% | 
13 | CC(=O)N1CCC[C@H](NS(C)(=O)=O)[C@@H]1CO[C@H]1CC[C@@H](c2cccc(OC(F)(F)F)c2)CC1 (relative stereo) [Example 297, N-(cis-1-acetyl-2-(((cis-4-(3-(trifluoromethoxy)phenyl)cyclohexyl)oxy)methyl)piperidin-3-yl)methanesulfonamide] | 2100 nM | 76% | 
14 | COC(=O)N1CCC[C@H](NS(C)(=O)=O)[C@@H]1CO[C@H]1CC[C@@H](c2cccc(OC(F)(F)F)c2)CC1 (relative stereo) [Example 298, methyl cis-3-((methylsulfonyl)amino)-2-(((cis-4-(3-(trifluoromethoxy)phenyl)cyclohexyl)oxy)methyl)piperidine-1-carboxylate] |  | 92% | 
15 | CS(=O)(=O)N[C@H]1CCCN(C(=O)C2CC2)[C@H]1CO[C@H]1CC[C@@H](c2cccc(OC(F)(F)F)c2)CC1 (relative stereo) [Example 299, N-(cis-1-(cyclopropylcarbonyl)-2-(((cis-4-(3-(trifluoromethoxy)phenyl)cyclohexyl)oxy)methyl)piperidin-3-yl)methanesulfonamide] | 95 nM | 90% | 
16 | CCNC(=O)N1CCC[C@H](NS(C)(=O)=O)[C@@H]1CO[C@H]1CC[C@@H](c2cccc(OC(F)(F)F)c2)CC1 (relative stereo) [Example 300, cis-N-ethyl-3-((methylsulfonyl)amino)-2-(((cis-4-(3-(trifluoromethoxy)phenyl)cyclohexyl)oxy)methyl)piperidine-1-carboxamide] | 9.7 nM | 94% | 
17 | CCS(=O)(=O)N[C@H]1CCCN(C(=O)OC)[C@H]1CO[C@H]1CC[C@@H](c2ccccc2)CC1 (relative stereo) [Example 301, methyl cis-3-((ethylsulfonyl)amino)-2-(((cis-4-phenylcyclohexyl)oxy)methyl)-piperidine-1-carboxylate] | 21 nM | 105% | 

The remaining lines, values ahead:

Row | EC50 | Emax | Emax (%) | SMILES
18 | 1600 nM | 98% |  | CC(C)OC(=O)N1CCC[C@H](NS(C)(=O)=O)[C@@H]1CO[C@H]1C[C@@H](c2ccccc2)C1 (relative stereo) [Example 307, isopropyl cis-3-((methylsulfonyl)mino)-2-(((cis-3-phenylcyclobutyl)oxy)methyl)-piperidine-1-carboxylate]
19 | 590 nM | 109% |  | CS(=O)(=O)N[C@H]1CCCN(C(=O)CC2CC2)[C@H]1CO[C@H]1C[C@@H](c2ccccc2)C1 (relative stereo) [Example 308, N-(cis-1-(cyclopropylacetyl)-2-(((cis-3-phenylcyclobutyl)oxy)methyl)-piperidin-3-yl)methanesulfonamide]
20 | 3200 nM | 98% |  | CCc1ccccc1[C@H]1CC[C@@H](OC[C@@H]2NCCC[C@@H]2NS(C)(=O)=O)CC1 (relative stereo) [Example 311, N-(cis-2-(((cis-4-(2-ethylphenyl)cyclohexyl)oxy)methyl)-piperidin-3-yl)methanesulfonamide]
21 | 270 nM | 95% |  | CC(OC(=O)N1CCC[C@H](NS(C)(=O)=O)[C@@H]1COC1CCN(c2ncccn2)CC1)C(F)(F)F (relative stereo) [Example 313, 1,1,1-trifluoropropan-2-yl cis-3-((methylsulfonyl)amino)-2-(((1-(pyrimidin-2-yl)piperidin-4-yl)oxy)methyl)piperidine-1-carboxylate]
22 | 170 nM | 103% |  | CN(C)S(=O)(=O)N[C@H]1CCCN(C(=O)OCC(F)(F)F)[C@H]1COC1CCN(c2ncccn2)CC1 (relative stereo) [Example 315, 2,2,2-trifluoroethyl cis-3-((dimethylsulfamoyl)amino)-2-(((1-(pyrimidin-2-yl)piperidin-4-yl)oxy)methyl)piperidine-1-carboxylate]
23 | 330 nM | 91% |  | CC(OC(=O)N1CCC[C@H](NS(=O)(=O)N(C)C)[C@@H]1COC1CCN(c2ncccn2)CC1)C(F)(F)F (relative stereo) [Example 316, 1,1,1-trifluoropropan-2-yl cis-3-((dimethylsulfamoyl)amino)-2-(((1-(pyrimidin-2-yl)piperidin-4-yl)oxy)methyl)piperidine-1-carboxylate]
24 | 2200 nM | 37% |  | CC(=O)N1CCC[C@H](NS(C)(=O)=O)[C@@H]1CO[C@H]1CC[C@@H](c2c(C)cccc2C)CC1 (relative stereo) [Example 321, N-(cis-1-acetyl-2-(((cis-4-(2,6-dimethylphenyl)cyclohexyl)oxy)-methyl)piperidin-3-yl)methanesulfonamide]
25 |  |  | 71% | COC(=O)N1CCC[C@H](NS(C)(=O)=O)[C@@H]1CO[C@H]1CC[C@@H](c2ccccc2C(F)F)CC1 (relative stereo) [Example 322, methyl cis-2-(((cis-4-(2-(difluoromethyl)phenyl)cyclohexyl)-oxy)methyl)-3-((methylsulfonyl)amino)piperidine-1-carboxylate]
26 | 5000 nM | 75% |  | CS(=O)(=O)N[C@H]1CCCN[C@H]1COC1CCC(F)(c2cc(F)cc(F)c2)CC1 (relative stereo) [Example 325, N-(cis-2-(((4-(3,5-difluorophenyl)-4-fluorocyclohexyl)oxy)methyl)-piperidin-3-yl)methanesulfonamide]
27 | 2600 nM | 86% |  | CS(=O)(=O)N[C@H]1CCCN(C(=O)C2CC2)[C@H]1COC1CCC(F)(c2cc(F)cc(F)c2)CC1 (relative stereo) [Example 327, N-(cis-1-(cyclopropylcarbonyl)-2-(((4-(3,5-difluorophenyl)-4-fluorocyclohexyl)oxy)methyl)-piperidin-3-yl)methanesulfonamide]
